pEC50: −log10 of the molar value.
Columns and labels:
[1] = target: Metabotropic glutamate receptor 4 (Homo sapiens) (UniProt Q14833); experiment: Tested for inhibition of glutamate induced stimulation of Metabotropic glutamate receptor 4 in HEK 293 cells; type: functional, cell-based; settings: HEK293; concentration not given here
[2] = target: Metabotropic glutamate receptor 1 (Homo sapiens, UniProt Q13255); experiment: Effect of compound on Metabotropic glutamate receptor 1 expressed in HEK 293 cells was determined by measuring IP production relative to glutamate; type: functional, cell-based, HEK293
Chain of Metabotropic glutamate receptor 1 (Q13255 whole entry): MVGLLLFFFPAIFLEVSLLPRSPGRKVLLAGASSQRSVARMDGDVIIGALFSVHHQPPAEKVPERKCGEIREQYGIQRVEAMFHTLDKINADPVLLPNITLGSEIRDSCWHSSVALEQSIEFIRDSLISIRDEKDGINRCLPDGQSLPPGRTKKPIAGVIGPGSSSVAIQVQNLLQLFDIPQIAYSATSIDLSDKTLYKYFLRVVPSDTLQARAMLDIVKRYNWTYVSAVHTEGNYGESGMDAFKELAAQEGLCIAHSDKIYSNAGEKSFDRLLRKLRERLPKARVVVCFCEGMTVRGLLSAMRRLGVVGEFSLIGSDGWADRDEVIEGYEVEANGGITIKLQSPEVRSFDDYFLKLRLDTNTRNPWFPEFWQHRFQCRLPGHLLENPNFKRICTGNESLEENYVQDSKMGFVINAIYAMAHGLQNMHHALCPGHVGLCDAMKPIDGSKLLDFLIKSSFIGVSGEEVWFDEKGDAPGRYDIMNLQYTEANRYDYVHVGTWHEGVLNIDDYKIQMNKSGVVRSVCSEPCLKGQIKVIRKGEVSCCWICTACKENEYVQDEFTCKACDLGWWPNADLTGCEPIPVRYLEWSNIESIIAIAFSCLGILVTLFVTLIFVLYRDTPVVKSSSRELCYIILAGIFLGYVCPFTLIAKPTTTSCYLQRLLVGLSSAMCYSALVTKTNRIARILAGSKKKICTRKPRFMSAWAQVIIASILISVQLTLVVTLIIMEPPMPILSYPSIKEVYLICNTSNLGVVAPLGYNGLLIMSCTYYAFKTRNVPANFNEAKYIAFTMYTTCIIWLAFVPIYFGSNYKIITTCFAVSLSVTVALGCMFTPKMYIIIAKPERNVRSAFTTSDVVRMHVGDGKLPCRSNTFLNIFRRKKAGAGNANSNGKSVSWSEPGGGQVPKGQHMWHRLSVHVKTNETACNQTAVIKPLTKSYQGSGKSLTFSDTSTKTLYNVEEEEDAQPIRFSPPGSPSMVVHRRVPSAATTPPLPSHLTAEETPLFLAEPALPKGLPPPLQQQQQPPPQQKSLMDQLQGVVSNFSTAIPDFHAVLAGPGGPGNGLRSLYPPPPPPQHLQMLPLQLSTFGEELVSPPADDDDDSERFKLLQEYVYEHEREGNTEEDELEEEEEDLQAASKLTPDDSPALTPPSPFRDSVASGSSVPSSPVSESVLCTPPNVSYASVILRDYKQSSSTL

[3] = target: Metabotropic glutamate receptor 2 (Homo sapiens) (UniProt Q14416); experiment: Tested for inhibition of glutamate induced stimulation of Metabotropic glutamate receptor 2 in HEK 293ells; type: functional, cell-based; settings: HEK293; concentration not given here
Chain of Metabotropic glutamate receptor 2 (Homo sapiens) (Q14416 19-872 limits assumed): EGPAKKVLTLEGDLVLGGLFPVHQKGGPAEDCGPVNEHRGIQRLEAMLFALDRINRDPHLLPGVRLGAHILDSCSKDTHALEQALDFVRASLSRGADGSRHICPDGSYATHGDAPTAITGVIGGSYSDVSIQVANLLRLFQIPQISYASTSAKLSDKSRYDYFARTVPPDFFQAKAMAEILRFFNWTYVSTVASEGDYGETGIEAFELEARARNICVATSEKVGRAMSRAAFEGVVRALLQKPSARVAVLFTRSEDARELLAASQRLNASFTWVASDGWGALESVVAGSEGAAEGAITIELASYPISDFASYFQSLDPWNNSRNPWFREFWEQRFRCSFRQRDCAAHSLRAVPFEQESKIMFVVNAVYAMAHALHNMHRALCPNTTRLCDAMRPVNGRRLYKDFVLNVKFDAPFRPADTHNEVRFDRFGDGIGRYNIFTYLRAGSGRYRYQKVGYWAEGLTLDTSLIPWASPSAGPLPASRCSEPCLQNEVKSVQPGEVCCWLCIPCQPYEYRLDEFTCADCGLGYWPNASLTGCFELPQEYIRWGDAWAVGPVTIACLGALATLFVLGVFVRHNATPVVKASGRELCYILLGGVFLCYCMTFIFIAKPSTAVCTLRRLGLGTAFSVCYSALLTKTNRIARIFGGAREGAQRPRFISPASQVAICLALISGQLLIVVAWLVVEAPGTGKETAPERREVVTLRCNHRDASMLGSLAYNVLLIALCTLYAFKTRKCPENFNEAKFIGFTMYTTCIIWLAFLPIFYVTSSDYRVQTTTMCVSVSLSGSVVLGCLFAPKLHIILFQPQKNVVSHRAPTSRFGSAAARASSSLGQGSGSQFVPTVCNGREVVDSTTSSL

Chain of Metabotropic glutamate receptor 4 (Homo sapiens) (Q14833 whole entry): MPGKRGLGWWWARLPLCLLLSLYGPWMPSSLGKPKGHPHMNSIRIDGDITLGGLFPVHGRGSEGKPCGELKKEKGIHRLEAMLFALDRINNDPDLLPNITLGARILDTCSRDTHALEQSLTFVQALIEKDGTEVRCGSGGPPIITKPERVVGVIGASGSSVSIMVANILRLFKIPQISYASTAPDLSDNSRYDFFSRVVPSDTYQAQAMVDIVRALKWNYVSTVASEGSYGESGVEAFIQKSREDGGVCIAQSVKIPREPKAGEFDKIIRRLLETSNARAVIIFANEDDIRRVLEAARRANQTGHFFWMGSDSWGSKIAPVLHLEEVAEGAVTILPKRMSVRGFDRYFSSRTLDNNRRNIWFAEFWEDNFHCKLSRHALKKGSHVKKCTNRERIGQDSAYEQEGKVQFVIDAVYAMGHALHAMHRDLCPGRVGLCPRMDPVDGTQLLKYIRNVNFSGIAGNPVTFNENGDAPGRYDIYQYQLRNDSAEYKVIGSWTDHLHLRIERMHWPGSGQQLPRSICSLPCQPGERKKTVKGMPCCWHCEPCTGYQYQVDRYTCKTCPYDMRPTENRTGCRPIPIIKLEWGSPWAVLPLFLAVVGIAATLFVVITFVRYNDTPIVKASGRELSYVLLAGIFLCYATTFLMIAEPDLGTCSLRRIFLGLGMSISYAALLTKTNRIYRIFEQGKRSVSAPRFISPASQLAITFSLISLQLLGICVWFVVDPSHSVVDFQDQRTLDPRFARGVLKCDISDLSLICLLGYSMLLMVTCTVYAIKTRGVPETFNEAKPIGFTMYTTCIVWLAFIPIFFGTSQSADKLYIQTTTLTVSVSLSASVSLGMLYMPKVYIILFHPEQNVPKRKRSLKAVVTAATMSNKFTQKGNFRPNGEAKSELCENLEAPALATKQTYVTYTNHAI

Work on `N[C@H](C(=O)O)[C@H](O)[C@H](O)C(=O)O` yielded an inhibition [1] of 57%, a pEC50 [2] of 3.59 and an inhibition [3] of 29%.

— ChEMBL document CHEMBL1132755, “First enantiospecific synthesis of a 3,4-dihydroxy-L-glutamic acid [(3S,4S)-DHGA], a new mGluR1 agonist” (Bioorg Med Chem Lett, 2000)
